Measurements as given in ChEMBL document CHEMBL6109139, “Rational Design of the First Dual Agonist at Trace Amine-Associated Receptor 1 and 5-HT2C Receptors Based on Binding Pocket Similarity for the Treatment of Schizophrenia and Alzheimer's Disease-Related Psychosis” (J Med Chem, 2025).
Active and inactive are the calls of the source. The calls are words filed in the database; no cut-off is given here.

Assays:
[1] = biological target: D(2) dopamine receptor (Homo sapiens, UniProt P14416); test: Antagonist activity at human D2S receptor expressed in Flp-In-CHO cells; type: cell-based
[2] = tested on: Mus musculus; test: Antipsychotic activity against MK-801 induced hyperlocomotion in male C57BL/6J mouse model at 3 mg/kg, IG […] followed by compound addition and measured after 30 mins by open field test; type: functional, organism-based
[3] = Toxicity in male Beagle dog assessed as change in urinalysis at 0.75 to 2.5 mg/kg, IG administered once daily for 4 weeks and measured after 4 weeks; type: organism-based, Canis lupus familiaris; conditions: in vivo, po, 1344 h, dose 0.75-2.5 mg/kg, time 8 weeks
[4] = Toxicity in female Sprague-Dawley rat assessed as suppression of food consumption at 7.5 mg/kg, po administered once daily for 4 weeks and measured after 4 weeks; type: organism-based; conditions: in vivo, 1344 h, time 8 weeks
[5] = biological target: KCNQ1 (Homo sapiens, UniProt P51787); test: Binding affinity to human KCNQ1 receptor at 10 uM by radioligand binding assay relative to control; conditions: read-out: Activity
[6] = biological target: cGMP-inhibited 3',5'-cyclic phosphodiesterase 3A (Homo sapiens) (UniProt Q14432); test: Binding affinity to PDE3A receptor (unknown origin) at 10 uM by radioligand binding assay relative to control
[7] = Metabolic stability in rat liver microsomes assessed as intrinsic clearance at 1 uM incubated for 60 mins by LC-MS/MS analysis; type: ADME, Microsome; conditions: read-out: CLH
[8] = biological target: Muscarinic acetylcholine receptor M2 (Homo sapiens) (UniProt P08172); test: Binding affinity to M2 receptor (unknown origin) at 10 uM by radioligand binding assay relative to control
[9] = biological target: Glucocorticoid receptor (Homo sapiens) (UniProt P04150); test: Binding affinity to GR receptor (unknown origin) at 10 uM by radioligand binding assay relative to control
[10] = biological target: 5-hydroxytryptamine receptor 7 (Homo sapiens, UniProt P34969); test: Agonist activity at recombinant human 5-HT7 expressed in HEK293 cells by FLIPR calcium assay; type: functional, cell-based
[11] = Mutagenicity in Salmonella typhimurium TA98 by Ames test; type: toxicity; conditions: salmonella enterica subsp. enterica serovar typhimurium
[12] = biological target: Cytochrome P450 3A4 (Homo sapiens, UniProt P08684); test: Inhibition of CYP3A4 in human liver microsomes in presence of NADPH by LC-MS/MS analysis; type: ADME, Microsome
[13] = biological target: Cytochrome P450 2C19 (Homo sapiens, UniProt P33261); test: Inhibition of CYP2C19 in human liver microsomes in presence of NADPH by LC-MS/MS analysis; type: ADME, Microsome
[14] = biological target: Cytochrome P450 2C9 (Homo sapiens, UniProt P11712); test: Inhibition of CYP2C9 in human liver microsomes in presence of NADPH by LC-MS/MS analysis; type: ADME, Microsome
[15] = Toxicity in female Sprague-Dawley rat assessed as slow respiration at 7.5 mg/kg, po administered once daily for 4 weeks; type: organism-based; conditions: in vivo, 672 h
[16] = Toxicity in female Beagle dog assessed as change in bone marrow smears at 0.75 to 2.5 mg/kg, IG administered once daily for 4 weeks and measured after 4 weeks; type: organism-based, Canis lupus familiaris; conditions: in vivo, po, 1344 h, dose 0.75-2.5 mg/kg, time 8 weeks
[17] = biological target: D(1A) dopamine receptor (Homo sapiens) (UniProt P21728); test: Binding affinity to D1 receptor (unknown origin) at 10 uM by radioligand binding assay relative to control
[18] = biological target: 5-hydroxytryptamine receptor 2B (Homo sapiens) (UniProt P41595); test: Binding affinity to 5-HT2B (unknown origin) at 10 uM by radioligand binding assay relative to control
[19] = biological target: Tyrosine-protein kinase Lck (Homo sapiens) (UniProt P06239); test: Binding affinity to LCK receptor (unknown origin) at 10 uM by radioligand binding assay relative to control
[20] = biological target: 5-hydroxytryptamine receptor 2C (Mus musculus) (UniProt P34968); test: Agonist activity at mouse 5-HT2CR by measuring maximum efficacy relative to control; type: functional; conditions: filed as agonist
[21] = tested on: Mus musculus; test: Antipsychotic activity against DOI-induced head-twitch response in mouse assessed as reduction in head-twitch response administered intragastrically and measured for 30 mins; type: functional, organism-based; conditions: dose 1-10 mg/kg
[22] = Toxicity in male Beagle dog assessed as change in gross necropsy at 0.75 to 2.5 mg/kg, IG administered once daily for 4 weeks and measured after 4 weeks; type: organism-based, Canis lupus familiaris; conditions: in vivo, po, 1344 h, dose 0.75-2.5 mg/kg, time 8 weeks
[23] = Ratio of drug concentration in male Sprague-Dawley rat brain to plasma at 5 mg/kg, IG measured after 1 hrs by LC-MS/MS analysis; type: ADME, organism-based; conditions: brain and plasma, po, read-out: BPR
[24] = Ratio of drug concentration in male Sprague-Dawley rat brain to plasma at 5 mg/kg, IG measured after 6 hrs by LC-MS/MS analysis; type: ADME, organism-based; conditions: brain and plasma, po, read-out: BPR
[25] = Toxicity in male Beagle dog assessed as change in organ ratios at 0.75 to 2.5 mg/kg, IG administered once daily for 4 weeks and measured after 4 weeks; type: organism-based, Canis lupus familiaris; conditions: in vivo, po, 1344 h, dose 0.75-2.5 mg/kg, time 8 weeks
[26] = tested on: Mus musculus; test: Antipsychotic activity against methamphetamine-induced hyperlocomotion in male C57BL/6J mouse model assessed as reduction in hyperlocomotive state at 10 mg/kg, IG pretreated with compound followed by methamphetamine addition and measured after 30 mins by open field test; type: functional, organism-based
[27] = Toxicity in female Beagle dog assessed as change in urinalysis at 0.75 to 2.5 mg/kg, IG administered once daily for 4 weeks and measured after 4 weeks; type: organism-based, Canis lupus familiaris; conditions: in vivo, po, 1344 h, dose 0.75-2.5 mg/kg, time 8 weeks
[28] = Toxicity in male Sprague-Dawley rat assessed as corneal epithelial degeneration at 7.5 mg/kg, po administered once daily for 4 weeks; type: organism-based; conditions: in vivo, 672 h
[29] = biological target: 5-hydroxytryptamine receptor 2A (Homo sapiens) (UniProt P28223); test: Binding affinity to 5-HT2A (unknown origin) at 10 uM by radioligand binding assay relative to control
[30] = biological target: Trace amine-associated receptor 1 (Rattus norvegicus, UniProt Q923Y9); test: Agonist activity at rat TAAR1; type: functional
[31] = biological target: Prostaglandin G/H synthase 2 (Homo sapiens) (UniProt P35354); test: Binding affinity to COX2 (unknown origin) at 10 uM by radioligand binding assay relative to control
[32] = biological target: T1, Trace amine-associated receptor 1 (Homo sapiens, UniProt Q96RJ0); test: Agonist activity at human TAAR1 extracted from CHO-K1 cell membrane coexpressing AGTRL1/Gi by cAMP assay; type: functional, cell membranes
T1 sequence (Q96RJ0 whole entry): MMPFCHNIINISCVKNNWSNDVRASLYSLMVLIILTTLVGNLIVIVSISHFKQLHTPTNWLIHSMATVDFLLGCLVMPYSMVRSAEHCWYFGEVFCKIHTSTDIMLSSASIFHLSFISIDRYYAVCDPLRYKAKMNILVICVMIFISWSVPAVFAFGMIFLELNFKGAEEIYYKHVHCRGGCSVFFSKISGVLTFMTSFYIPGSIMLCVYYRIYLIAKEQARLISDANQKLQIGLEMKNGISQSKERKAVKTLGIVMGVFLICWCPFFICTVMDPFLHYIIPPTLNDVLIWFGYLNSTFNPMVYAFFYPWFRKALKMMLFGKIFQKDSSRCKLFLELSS

[33] = Toxicity in female Sprague-Dawley rat assessed as change in blood glucose level at 2.5 to 7.5 mg/kg, po administered once daily for 4 weeks and measured after 4 weeks; type: organism-based; conditions: in vivo, 1344 h, dose 2.5-7.5 mg/kg, time 8 weeks

Chain of 5-hydroxytryptamine receptor 7 (P34969 whole entry): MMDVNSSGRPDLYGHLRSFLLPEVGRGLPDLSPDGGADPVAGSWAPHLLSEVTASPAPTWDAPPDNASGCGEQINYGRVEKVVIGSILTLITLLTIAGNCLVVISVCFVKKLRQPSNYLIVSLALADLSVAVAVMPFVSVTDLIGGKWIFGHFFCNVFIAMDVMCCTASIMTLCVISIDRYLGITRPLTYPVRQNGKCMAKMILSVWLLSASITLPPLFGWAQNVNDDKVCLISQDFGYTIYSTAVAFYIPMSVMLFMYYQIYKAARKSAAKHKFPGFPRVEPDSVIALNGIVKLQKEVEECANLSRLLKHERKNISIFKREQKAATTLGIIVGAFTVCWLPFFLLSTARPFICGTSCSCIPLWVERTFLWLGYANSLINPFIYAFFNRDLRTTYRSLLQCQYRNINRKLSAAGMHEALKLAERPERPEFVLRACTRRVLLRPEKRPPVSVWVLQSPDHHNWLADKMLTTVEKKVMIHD
Chain of 5-hydroxytryptamine receptor 2C (Mus musculus) (P34968 whole entry): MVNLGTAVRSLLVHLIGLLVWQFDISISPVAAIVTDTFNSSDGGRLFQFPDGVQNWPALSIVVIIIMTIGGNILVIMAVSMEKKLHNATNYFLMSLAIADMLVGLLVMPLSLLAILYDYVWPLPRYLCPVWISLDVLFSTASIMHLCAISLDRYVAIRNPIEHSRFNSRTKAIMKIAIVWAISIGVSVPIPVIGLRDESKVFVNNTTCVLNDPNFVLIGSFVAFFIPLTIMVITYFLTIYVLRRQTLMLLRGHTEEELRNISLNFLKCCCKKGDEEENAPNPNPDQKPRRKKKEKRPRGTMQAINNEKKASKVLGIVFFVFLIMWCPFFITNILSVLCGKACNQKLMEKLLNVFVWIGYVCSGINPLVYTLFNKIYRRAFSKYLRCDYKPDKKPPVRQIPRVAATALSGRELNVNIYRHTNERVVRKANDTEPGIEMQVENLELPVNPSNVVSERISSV
Chain of Tyrosine-protein kinase Lck (Homo sapiens) (P06239 2-509 limits assumed): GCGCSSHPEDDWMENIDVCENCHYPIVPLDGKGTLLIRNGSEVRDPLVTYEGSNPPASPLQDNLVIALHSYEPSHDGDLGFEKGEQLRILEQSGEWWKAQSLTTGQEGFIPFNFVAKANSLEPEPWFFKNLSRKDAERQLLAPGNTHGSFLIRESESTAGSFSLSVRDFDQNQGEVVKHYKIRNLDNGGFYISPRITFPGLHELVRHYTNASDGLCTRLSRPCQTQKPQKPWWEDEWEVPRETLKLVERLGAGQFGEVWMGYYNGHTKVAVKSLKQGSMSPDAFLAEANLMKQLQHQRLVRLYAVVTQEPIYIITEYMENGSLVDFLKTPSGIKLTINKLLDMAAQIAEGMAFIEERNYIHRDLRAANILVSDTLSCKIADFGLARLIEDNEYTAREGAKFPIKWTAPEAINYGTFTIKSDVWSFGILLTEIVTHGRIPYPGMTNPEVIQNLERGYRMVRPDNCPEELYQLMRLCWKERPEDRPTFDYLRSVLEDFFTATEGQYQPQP
Chain of Prostaglandin G/H synthase 2 (Homo sapiens) (P35354 whole entry): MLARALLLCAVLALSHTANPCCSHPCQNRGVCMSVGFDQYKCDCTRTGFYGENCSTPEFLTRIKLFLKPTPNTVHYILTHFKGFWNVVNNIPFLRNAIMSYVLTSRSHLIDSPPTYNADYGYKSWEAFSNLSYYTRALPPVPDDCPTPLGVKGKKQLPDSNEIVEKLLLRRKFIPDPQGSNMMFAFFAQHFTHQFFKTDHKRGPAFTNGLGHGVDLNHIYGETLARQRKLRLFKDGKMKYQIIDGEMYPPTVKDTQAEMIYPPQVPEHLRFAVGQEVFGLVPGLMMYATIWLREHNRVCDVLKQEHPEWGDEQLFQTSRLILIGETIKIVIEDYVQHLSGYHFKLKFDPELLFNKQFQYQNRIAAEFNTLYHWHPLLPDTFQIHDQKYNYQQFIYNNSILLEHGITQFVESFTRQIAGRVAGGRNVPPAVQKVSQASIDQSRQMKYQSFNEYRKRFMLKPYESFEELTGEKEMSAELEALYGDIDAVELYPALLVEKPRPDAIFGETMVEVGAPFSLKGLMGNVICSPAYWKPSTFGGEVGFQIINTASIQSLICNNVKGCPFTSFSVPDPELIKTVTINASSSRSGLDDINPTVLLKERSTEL
Chain of Cytochrome P450 2C19 (P33261 whole entry): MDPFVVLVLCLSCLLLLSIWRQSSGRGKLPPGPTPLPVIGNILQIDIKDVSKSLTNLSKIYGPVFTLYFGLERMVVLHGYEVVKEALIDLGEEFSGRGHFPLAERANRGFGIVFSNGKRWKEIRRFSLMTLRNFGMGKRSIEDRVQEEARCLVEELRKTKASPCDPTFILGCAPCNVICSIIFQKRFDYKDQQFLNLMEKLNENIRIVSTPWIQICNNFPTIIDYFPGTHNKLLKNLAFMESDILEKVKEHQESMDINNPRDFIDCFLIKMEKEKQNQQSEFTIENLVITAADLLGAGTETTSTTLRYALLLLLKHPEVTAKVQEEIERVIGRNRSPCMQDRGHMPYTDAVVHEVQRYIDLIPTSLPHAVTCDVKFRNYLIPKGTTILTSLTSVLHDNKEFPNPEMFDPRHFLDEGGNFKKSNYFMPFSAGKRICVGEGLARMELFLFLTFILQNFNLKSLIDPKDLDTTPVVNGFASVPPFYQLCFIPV
Chain of Trace amine-associated receptor 1 (Rattus norvegicus, UniProt Q923Y9) (Q923Y9 whole entry): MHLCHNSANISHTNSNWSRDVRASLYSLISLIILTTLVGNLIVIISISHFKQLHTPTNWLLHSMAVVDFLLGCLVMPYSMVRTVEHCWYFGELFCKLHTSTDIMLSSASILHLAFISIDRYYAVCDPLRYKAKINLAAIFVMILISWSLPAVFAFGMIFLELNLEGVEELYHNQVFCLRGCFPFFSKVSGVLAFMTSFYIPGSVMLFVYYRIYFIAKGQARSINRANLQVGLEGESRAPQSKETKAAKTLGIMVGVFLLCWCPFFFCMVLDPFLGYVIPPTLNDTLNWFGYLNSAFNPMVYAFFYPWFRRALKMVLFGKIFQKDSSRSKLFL
Chain of Glucocorticoid receptor (Homo sapiens) (P04150 whole entry): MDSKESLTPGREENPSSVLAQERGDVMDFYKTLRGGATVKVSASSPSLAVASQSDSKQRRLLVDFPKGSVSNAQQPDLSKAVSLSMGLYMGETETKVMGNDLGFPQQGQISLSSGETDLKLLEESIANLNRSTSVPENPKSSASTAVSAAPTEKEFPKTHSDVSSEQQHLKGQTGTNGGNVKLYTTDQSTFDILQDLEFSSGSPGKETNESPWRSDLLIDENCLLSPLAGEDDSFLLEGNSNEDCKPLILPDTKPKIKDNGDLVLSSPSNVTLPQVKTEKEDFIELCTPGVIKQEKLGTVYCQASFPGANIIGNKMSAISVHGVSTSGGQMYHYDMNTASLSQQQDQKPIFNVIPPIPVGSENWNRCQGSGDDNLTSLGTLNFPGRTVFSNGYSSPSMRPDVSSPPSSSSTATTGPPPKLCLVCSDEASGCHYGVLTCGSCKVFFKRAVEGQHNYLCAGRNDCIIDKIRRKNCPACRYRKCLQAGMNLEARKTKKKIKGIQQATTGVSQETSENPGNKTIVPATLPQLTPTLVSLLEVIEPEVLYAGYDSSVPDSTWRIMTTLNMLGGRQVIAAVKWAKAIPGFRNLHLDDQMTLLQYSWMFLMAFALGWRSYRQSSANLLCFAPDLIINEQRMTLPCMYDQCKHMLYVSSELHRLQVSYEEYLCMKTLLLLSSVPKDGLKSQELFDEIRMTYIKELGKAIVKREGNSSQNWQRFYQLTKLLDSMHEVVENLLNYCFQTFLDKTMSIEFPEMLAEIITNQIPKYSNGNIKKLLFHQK
Chain of Cytochrome P450 3A4 (P08684 whole entry): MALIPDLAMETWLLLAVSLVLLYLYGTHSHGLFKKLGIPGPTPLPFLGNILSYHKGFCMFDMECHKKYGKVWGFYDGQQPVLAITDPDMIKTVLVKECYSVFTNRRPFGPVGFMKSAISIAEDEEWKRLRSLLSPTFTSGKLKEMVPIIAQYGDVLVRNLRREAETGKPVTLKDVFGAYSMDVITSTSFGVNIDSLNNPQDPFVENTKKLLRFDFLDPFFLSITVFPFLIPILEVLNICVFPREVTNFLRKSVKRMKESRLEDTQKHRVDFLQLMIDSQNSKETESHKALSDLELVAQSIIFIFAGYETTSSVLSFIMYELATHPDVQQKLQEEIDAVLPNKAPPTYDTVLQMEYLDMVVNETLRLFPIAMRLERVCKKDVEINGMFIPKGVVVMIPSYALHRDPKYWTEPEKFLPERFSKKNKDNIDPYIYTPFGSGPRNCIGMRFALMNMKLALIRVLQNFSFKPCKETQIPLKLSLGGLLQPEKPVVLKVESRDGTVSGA
Chain of Muscarinic acetylcholine receptor M2 (Homo sapiens) (P08172 whole entry): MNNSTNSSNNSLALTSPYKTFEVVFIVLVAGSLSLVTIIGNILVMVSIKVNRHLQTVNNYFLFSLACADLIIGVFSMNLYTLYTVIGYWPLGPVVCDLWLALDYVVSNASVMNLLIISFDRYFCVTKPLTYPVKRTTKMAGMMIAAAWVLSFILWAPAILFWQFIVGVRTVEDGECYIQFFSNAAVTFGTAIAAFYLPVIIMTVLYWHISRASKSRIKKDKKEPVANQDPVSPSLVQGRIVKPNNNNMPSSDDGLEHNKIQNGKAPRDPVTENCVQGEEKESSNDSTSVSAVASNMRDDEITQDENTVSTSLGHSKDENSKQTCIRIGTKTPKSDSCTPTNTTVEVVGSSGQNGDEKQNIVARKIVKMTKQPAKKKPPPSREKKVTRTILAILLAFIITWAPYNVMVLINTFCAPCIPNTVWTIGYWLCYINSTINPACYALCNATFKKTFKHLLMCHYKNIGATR

Structure (SMILES): c1cc2c(s1)[C@@H]1CNCCN1CC2
- IC50 [1]: > 100 µM
- Activity [2]: inactive
- Activity [3]: Non-toxic
- Activity [4]: Non-toxic
- activity at 10 µM [5]: 28.4%
- Activity [6]: 3.89%
- CLint scaled at 1 µM [7]: < 13.5 mL/min/kg
- Activity [8]: 28.9%
- Activity [9]: 33.7%
- EC50 [10]: 10.9 µM
- Activity [11]: Non-toxic
- IC50 [12]: > 50 µM
- IC50 [13]: > 50 µM
- IC50 [14]: > 50 µM
- Activity [15]: Toxic
- Activity [16]: Non-toxic
- Activity [17]: 45.9%
- Activity [18]: 45.3%
- Activity [19]: 3.4%
- Emax [20]: 103%
- Activity [21]: Dose-dependent-effect
- Activity [22]: Non-toxic
- Kp at 1 h [23]: 6.02
- Kp at 6 h [24]: 4.22
- Activity [25]: Non-toxic
- Activity [26]: Active
- Activity [27]: Non-toxic
- Activity [28]: Toxic
- Activity [29]: 36.5%
- EC50 [30]: 0.682 µM
- Activity [31]: 48.5%
- EC50 [32]: 0.022 µM
- Activity [33]: Non-toxic
